Measured values taken from patent publication US9616010B2, “Cosmetic composition comprising a ternary lipid association for controlling dryness of the skin” (PIERRE FABRE DERMO-COSMETIQUE, priority 2013, dated 2017).

Key:
isolated stratum corneum = details: Levi et al., Int J Cosmet Sci. 2010; 32: 276-93; cited from earlier work
[1] = system: isolated stratum corneum (SC) from human skin explants; assay: Mechanical stress within isolated SC subjected to dehydration stress in an environmental chamber (substrate curvature)
From the text: These elements led the Applicant to use an in vitro model of isolated SC to study changes in mechanical properties as a function of hydration level. Measuring skin tension makes it possible to define a relationship between skin dryness and skin stress, and the appearance of cracks. Moreover, the use of this model makes it possible to know with a high degree of accuracy the effect of active agents on these mechanical measurements and, consequently, on the hydration state of the stratum corneum. (K. Levi, R. J. Weber, J. Q. Do and R. H. Dauskardt. International Journal of Cosmetic Science, 2010, 32, 276-293 Drying stress and damage processes in human stratum corneum) (K. Levi and R. H. Dauskardt. International Journal of Cosmetic Science, 2010, 32, 294-298 Application of substrate curvature method to differentiate drying stresses in topical coatings and human stratum corneum).
The mechanical approach used here consists in measuring the mechanical stress produced within SC that has been isolated and subjected to dehydration stress in an environmental chamber.
The SC specimen—from human skin explants—was isolated by enzymatic digestion. It was placed on a borosilicate slide to which it naturally adheres.
The SC, initially 100% hydrated, is then placed in an atmosphere with 7% air humidity. The SC then undergoes a progressive dehydration, during which measurements of SC tension are taken every 15 minutes for 8 hours using a stress measurement device. […] Given the differences that exist between its mechanical properties and those of the support (the slide), the latter bends. By means of this radius of curvature, measured with a laser interferometer, it is then possible to calculate the state of tension/stress from the Stoney equation. The initial data correspond to a measurement of the variation of the curvature of the unit (borosilicate slide+SC). It is possible to calculate the biomechanical stress parameters of the SC, such as tension, from knowledge of the biomechanical properties of the borosilicate slide, its thickness, and the thickness of the SC (see methodology FIG. 1; and bibliographical reference K. Levi, et al., IJCS 2010).
This first kinetics study makes it possible to know the behavior of untreated SC. Next, the unit (SC+slide) is returned to 100% air humidity for 2 hours and then incubated in the various treatments for 5 minutes. A […] film is deposited: using a spiral filmograph for liquid emollients and a slide for creams. At the end of this period the unit is again placed in 7% air humidity for the study of dehydration kinetics until stabilization of the measurements (generally 8 to 12 hours). […]

Q: Which results are given for isocetyl stearoyl stearate [compound 1]?
A: efficacy with respect to the shrinking of the stratum corneum specimen desiccated by a lack of moisture (isolated stratum corneum): good efficacy; maximum stress within the SC ([1]; SC pretreated 5 minutes, then 7% air humidity, compared with untreated control, FIG. 3): momentarily greater than the control; time to reach minimum stress plateau ([1]; after the stress starts to fall, 7% air humidity, FIG. 3): 2 h; time after which the stress falls ([1]; hours of dehydration at 7% air humidity, FIG. 3): 3 h; shrinking of the skin induced by drying stress ([1]; topical application, during the first 4 hours, FIG. 1): increases
